# Patent US20260306463A1, “SIK INHIBITORS TO TREAT CHRONIC KIDNEY DISEASE” (The General Hospital Corporation, priority 2023, published 2026)
# “Also recorded” adds a separate entry of the source. Like-named read-outs stand apart in the source and are kept apart here.
# Key:
# [1] = tested on: mice with adenine diet-induced chronic kidney disease; test: 8 week adenine diet CKD study, SK-124 versus once daily PTH injections; assay type: in vivo, mouse (female CD1); settings: 8 weeks
# Method: FIGS. 4A-4D. […] (A) Study design: Female CD1 mice (n=8/group) were treated with control or 0.2% adenine diet starting at […] of age along with vehicle, PTH (80 mcg/kg/d, IP injections) or SK-124 (40 mg/kg) treatment by oral gavage once daily. Mice were treated for 8 weeks. (B, C) After 8 weeks of treatment, the indicated serum analyte was measured. (D) Whole kidney RNA from the indicated groups was analyzed by RT-qPCR for the indicated fibrosis marker gene.
# 7-week-old female CD1 mice were obtained from Charles River Laboratories (Wilmington, MA) and were fed on 0.2% adenine containing diet (TD.130900; 0.2% Adenine, 0.9% Phosphate, 0.5% Calcium; Envigo) or control diet (TD. 96348) for 6 or 8 weeks to induce chronic kidney disease (CKD). Mice were oral gavaged with 40 mg/kg SK-124, or intraperitonially injected with 80 μg/kg PTH, or treated with vehicle 5 days a week for the duration of the special diet.
# For studies with Ubiquitin-Cre^ERt2; Sik2^ff; Sik3^ff mice (JAX #007001 for Ubiquitin-Cre^ERt2: RRID:MGL:5905012 for Sik2 foxed mice; and Sik3^tmla(EUCOMM)Hmgu mice (RRID:MGI:5085429) bred to PGK1 FLPo mice (JAX #011065) in order to generate Sik3 foxed mice), tamoxifen was injected (1 mg, IP, Q48 hours, 3 injections total) in all animals including Cre-negative control littermates housed in cages with Pure-o′Cel bedding at 5 weeks of age. Mice were then fed on 0.2% adenine diet from 6 weeks to 9 weeks of age. Mice were fasted for 6 hours and treated with SK-124 and PTH 4 hours and 2 hours before the sacrifice. Blood and spot urine samples were collected by cheek pouch bleeding and by pipetting urine collected on hydrophobic sand (Labsand; Braintree, MA). Kidneys were immediately snap-frozen in liquid nitrogen for TRIzol (Life Technologies)-Chloroform (Fischer Scientific) based RNA isolation or protein isolation, or fixed in 10% formalin at 4C for 24 hrs for histology. All serum and urine measurements were performed using commercial bioassay detection reagents listed in Table 1, following the manufacturers' instructions. Urine protein levels were measured by Bradford assay and normalized to urine creatinine.
# cDNA was prepared using Primescript RT kit (Takara Inc), with 750 ng RNA per reaction. RT-qPCR was performed by using PerfeCa® SYBR® Green FAstMix® ROX (Quanta bio) in the StepOnePlus™ Real-time PCR System (Applied Biosystems). Hmbs was used as a control housekeeping gene for mouse samples, and B-Actin was used for organoids, relative expression was calculated (2^-deltaCT method) and compared to the mean of control group if necessary. Primers used for RT-qPCR are listed in Table 2 (mouse primers) and Table 3 (human primers).
# [2] = tested on: whole kidney transcriptome; test: bulk RNA-sequencing of whole kidney, adenine CKD mice; assay type: in vivo, mouse; settings: bulk RNA-seq
# Method: (§1) FIGS. 6A-6F. The effects of SK-124 treatment at the transcriptomic level in adenine-induced mouse chronic kidney disease. RNA-seq was performed on whole kidney RNA samples (n=7/group) from FIG. 1. Volcano plot show gene regulated (>2-fold change, p(adj)<0.05) by CKD (versus control diet, A) or in CKD by SK-124 (versus vehicle control, B). In Volcano plot, representative fibrosis markers (Col3a1, Vim, Serpinel) and proximal tubule integrity (Lrp2. Atplai, and Hnf4a) are shown. Scatterplot (C) and heatmap (D) showing integration of individual RNA-seq comparisons. […] (E) Single cell RNA-sequencing was performed on dissociated kidneys from adenine diet fed mice treated with vehicle or SK-124 (n=4/group). […] (F) Relative cellularity of each annotated cluster is shown in pie chart format for adenine+vehicle (CKD-Veh) or adenine+SK-124 (CKD-SK-124) mice.
# Isolated RNA samples from the mouse adenine diet study and human kidney organoid experiment were submitted to Novogene and bulk-RNA sequencing on NovaSeq X Plus Ilumina Novoseq Platform. Sequencing reads were mapped to the mouse reference genome (mm10/GRCm38) or human reference genome (GRCh38/hg38) using Salmon and differential gene expression analysis was performed using DESeq2.
# [3] = tested on: kidney cell clusters; test: single cell RNA-sequencing of dissociated kidneys, adenine CKD mice; assay type: in vivo, mouse; settings: SK-124 vs vehicle, adenine diet
# Method: as §1
# To perform single cell RNA sequencing, mouse kidneys were harvested and immediately dissociated in liberase TH (Millipore Sigma, 05401135001) at 37 degrees for 1 hour at 600 rpm. After removing red blood cells using red blood cell lysis buffer (Sigma, R7757), the cells were further dissociated in Accumax (Stemcell Technologies, 7921) and submitted to MGH Department of Molecular Biology for gel beads in emulsion (GEM) formation and subsequent single cell RNA sequencing using the 10× Genomics Chromium 3′ droplet-based sequencing platform. The CellRanger toolkit (v6.0.2) by 10× Genomics was used to 1) align the sequencing reads to the mouse reference transcriptome (mm10). 2) quantify gene expression, resulting in gene-by-cell UMI count matrices, and 3) aggregate all samples into a single feature barcode matrix containing all the data for downstream analysis. All single cell data analysis was performed in the R software environment for statistical computing and graphics using the package Seurat.
# [4] = tested on: SIK2/SIK3; settings: reference to WO 2022/031928, Sato et al., Yoon et al., cited from earlier work
# [5] = tested on: bone and kidney; settings: bone and kidney (ref. 7); cited from earlier work
# [6] = adenine vs control diet, or SK-124 vs vehicle in CKD mice
smiles,measurement,setting,value
"CCc1nnc(-c2c(OC)cc(-c3cnc4cc(-c5cnn(C)c5)ccn34)cc2OC)o1 [SK-124, 2-[2,6-Dimethoxy-4-[7-(1-methylpyrazol-4-yl)imidazo[1,2-a]pyridin-3-yl]phenyl]-5-ethyl-1,3,4-oxadiazole]",CKD-MBD markers,"[1]; SK-124 40 mg/kg oral gavage once daily, or PTH 80 mcg/kg/d IP",reduced CKD-MBD markers
same,kidney function,"[1]; SK-124 40 mg/kg oral gavage once daily, or PTH 80 mcg/kg/d IP, 40 mg/kg",improved kidney function
same,fibrosis marker gene expression,"[1]; whole kidney RT-qPCR, SK-124 40 mg/kg oral, or PTH 80 mcg/kg/d IP",reduced fibrosis marker gene expression
same,patterns of dysregulated gene expression in CKD,"[2]; scatterplot and heat map, SK-124 vs vehicle",conversely regulated; also recorded: reversed
same,"injury markers (Col3a1, Vim, Serpine1)",[2]; [6],suppressed
same,"markers of intact proximal epithelial cells (Lrp2, Atpla1, Hnf4a) / epithelial cell integrity",[2]; [6],preserved expression
same,fibroblast cluster cellularity,[3],reduces fibroblast cluster cellularity
same,"injury markers (failed repair proximal tubule cells, fibroblasts, and myofibroblasts)",[3],reduced injury markers
same,numbers of healthy proximal tubule (epithelial) cells,[3],increases numbers of healthy epithelial cells; also recorded: increased numbers of healthy proximal tubule cells
same,SIK isoform selectivity,[4],specific SIK2/SIK3 inhibitor; also recorded: SIK2/SIK3-selective inhibitor
same,SIK isoform selectivity,[4]; listed as SIK-124,selective SIK2/SIK3 inhibitor
same,PTH-like effects in vivo,[5],PTH-like effects in vivo in bone and kidney
